Tests used:
[1] = target: Prolyl endopeptidase, Prolyl Oligopeptidase (hPREP) (Homo sapiens (Human), UniProt P48147); assay: hPrep inhibition assay; type: biochemical; conditions: hPREP 0.6 nM, Z-Gly-Pro-amino-methylcoumarin 50 μM; read-out: PREP IC50
Procedure: Compounds were tested in a biochemical inhibition assay using Prolyl endopeptidase, Prolyl Oligopeptidase (hPREP) enzyme at 0.6 nM FAC (R&D Systems, 4308-SE) and the substrate Z-Gly-Pro-amino-methylcoumarin (Bachem, I-1145) at 50 μM FAC. 384 Low volume black plates (Greiner #784076) were used. […] Plates were incubated for 15 min at rt in dark. 4 μL, 100 μM substrate solution (25 mM Tris HCl, 250 mM NaCl, 0.01% Triton X-100, 5 mM Glutathione, pH 7.5) was added to each well. Plates were centrifuged at 1000 rpm and incubated for 20 min at rt in dark. The plates were read on a PHERAstar® reader with excitation 340 nm and emission 460 nm. Data were analyzed in Genedata Screener®. IC50 values were determined by plotting % inhibition versus log compound concentration and using a one site dose response model.

[2] = target: hFAP (M39-A757) (Homo sapiens (Human), UniProt Q12884); assay: hFAP binding assay (surface plasmon resonance); conditions: SPR, 20° C., single cycle kinetics
Chain of hFAP (M39-A757) (Q12884 39-757): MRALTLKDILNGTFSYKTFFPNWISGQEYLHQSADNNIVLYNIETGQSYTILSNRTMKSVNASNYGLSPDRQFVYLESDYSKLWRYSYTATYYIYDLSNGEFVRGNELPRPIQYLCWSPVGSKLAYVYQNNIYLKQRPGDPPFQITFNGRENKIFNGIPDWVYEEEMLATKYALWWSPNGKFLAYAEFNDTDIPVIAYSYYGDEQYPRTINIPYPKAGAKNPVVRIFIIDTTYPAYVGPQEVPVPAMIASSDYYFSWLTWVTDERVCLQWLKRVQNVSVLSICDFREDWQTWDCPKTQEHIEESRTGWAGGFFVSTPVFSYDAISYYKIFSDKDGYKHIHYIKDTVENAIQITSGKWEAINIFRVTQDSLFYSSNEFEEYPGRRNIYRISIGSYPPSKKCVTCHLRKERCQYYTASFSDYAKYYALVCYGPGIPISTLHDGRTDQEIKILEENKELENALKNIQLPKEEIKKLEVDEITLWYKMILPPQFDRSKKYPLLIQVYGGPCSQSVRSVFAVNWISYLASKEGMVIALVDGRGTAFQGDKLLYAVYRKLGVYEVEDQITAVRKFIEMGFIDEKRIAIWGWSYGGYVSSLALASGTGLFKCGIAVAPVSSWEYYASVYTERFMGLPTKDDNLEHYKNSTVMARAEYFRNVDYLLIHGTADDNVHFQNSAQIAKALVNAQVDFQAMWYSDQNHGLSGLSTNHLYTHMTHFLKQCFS

Chain of Prolyl endopeptidase, Prolyl Oligopeptidase (hPREP) (P48147 whole entry): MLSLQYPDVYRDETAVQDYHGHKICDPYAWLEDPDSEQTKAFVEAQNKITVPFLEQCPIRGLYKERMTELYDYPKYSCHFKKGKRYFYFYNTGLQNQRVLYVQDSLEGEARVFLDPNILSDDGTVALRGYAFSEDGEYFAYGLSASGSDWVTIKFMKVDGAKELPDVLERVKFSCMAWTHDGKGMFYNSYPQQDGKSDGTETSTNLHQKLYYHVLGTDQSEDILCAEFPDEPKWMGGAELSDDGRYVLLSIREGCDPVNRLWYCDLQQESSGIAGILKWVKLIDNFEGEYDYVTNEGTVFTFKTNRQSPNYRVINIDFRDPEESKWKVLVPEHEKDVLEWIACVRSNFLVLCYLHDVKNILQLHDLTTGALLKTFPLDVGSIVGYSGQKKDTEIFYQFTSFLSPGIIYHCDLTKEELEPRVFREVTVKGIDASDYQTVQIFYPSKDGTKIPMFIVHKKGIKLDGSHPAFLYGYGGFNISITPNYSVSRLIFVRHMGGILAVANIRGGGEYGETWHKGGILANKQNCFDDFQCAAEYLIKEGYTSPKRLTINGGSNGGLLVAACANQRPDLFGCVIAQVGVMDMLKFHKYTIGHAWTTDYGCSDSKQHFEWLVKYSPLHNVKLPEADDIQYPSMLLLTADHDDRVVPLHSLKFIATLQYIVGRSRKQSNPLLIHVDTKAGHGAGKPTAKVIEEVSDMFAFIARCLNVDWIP

Row | IC50 [1] [nM] | hFAP Binding assay k(off) [2] [s⁻¹] | hFAP Binding assay k(on) [2] [M⁻¹ s⁻¹] | SMILES
1 | 140 |  |  | N#C[C@@H]1CSCN1C(=O)CNC(=O)c1ccnc2ccc(N3CCCC3=O)cc12 [Example 11, (R)—N-(2-(4-Cyanothiazolidin-3-yl)-2-oxoethyl)-6-(2-oxopyrrolidin-1-yl)-quinoline-4-carboxamide]
2 | 5.2 |  |  | Cc1ccc2c(C(=O)NCC(=O)N3CSC[C@H]3C#N)ccnc2c1 [B, (R)—N-(2-(4-cyanothiazolidin-3-yl)-2-oxoethyl)-7-methylquinoline-4-carboxamide, reference compound]
3 | 270 | 0.00016 | 5600000 | N#C[C@@H]1CSCN1C(=O)CNC(=O)c1ccnc2ccc(N3CCC(F)(F)C3)cc12 [Example 47, (R)—N-(2-(4-Cyanothiazolidin-3-yl)-2-oxoethyl)-6-(3,3-difluoropyrrolidin-1-yl)quinoline-4-carboxamide]
4 | 1700 | 0.000063 | 1400000 | C[C@H]1OCCN(c2ccc3nccc(C(=O)NCC(=O)N4CSC[C@H]4C#N)c3c2)[C@H]1C [Example 81, N-(2-((R)-4-Cyanothiazolidin-3-yl)-2-oxoethyl)-6-((2R,3S)-2,3-dimethyl-morpholino)quinoline-4-carboxamide]
5 | 410 | 0.000046 | 8500000 | N#C[C@@H]1CSCN1C(=O)CNC(=O)c1ccnc2ccc(N3CC[C@H](CO)C3)cc12 [Example 221, N-(2-((R)-4-Cyanothiazolidin-3-yl)-2-oxoethyl)-6-((S)-3-(hydroxymethyl)-pyrrolidin-1-yl)quinoline-4-carboxamide]
6 | 470 | 0.000075 | 2500000 | CCC1(F)CN(c2ccc3nccc(C(=O)NCC(=O)N4CSC[C@H]4C#N)c3c2)C1 [Example 138, (R)—N-(2-(4-Cyanothiazolidin-3-yl)-2-oxoethyl)-6-(3-ethyl-3-fluoro-azetidin-1-yl)quinoline-4-carboxamide]
7 | 1600 | 0.000027 | 180000 | CC(=O)NCC1(C)CN(c2ccc3nccc(C(=O)NCC(=O)N4CSC[C@H]4C#N)c3c2)C1 [Example 181, (R)-6-(3-(Acetamidomethyl)-3-methylazetidin-1-yl)-N-(2-(4-cyano-thiazolidin-3-yl)-2-oxoethyl)quinoline-4-carboxamide]
8 | 390 | 0.000050 | 1600000 | N#C[C@@H]1CSCN1C(=O)CNC(=O)c1ccnc2ccc(N3CC[C@@H](CO)C3)cc12 [Example 220, N-(2-((R)-4-Cyanothiazolidin-3-yl)-2-oxoethyl)-6-((R)-3-(hydroxymethyl)-pyrrolidin-1-yl)quinoline-4-carboxamide]
9 | 1300 | 0.00015 | 3600000 | COC[C@H]1COCCN1c1ccc2nccc(C(=O)NCC(=O)N3CSC[C@H]3C#N)c2c1 [Example 89, N-(2-((R)-4-Cyanothiazolidin-3-yl)-2-oxoethyl)-6-((S)-3-(methoxymethyl)-morpholino)quinoline-4-carboxamide]
10 | 640 | 0.000064 | 1700000 | C[C@@H]1[C@@H](C)OCCN1c1ccc2nccc(C(=O)NCC(=O)N3CSC[C@H]3C#N)c2c1 [Example 83, N-(2-((R)-4-Cyanothiazolidin-3-yl)-2-oxoethyl)-6-((2R,3R)-2,3-dimethyl-morpholino)quinoline-4-carboxamide]
11 | 260 | 0.00021 | 3200000 | N#C[C@@H]1CSCN1C(=O)CNC(=O)c1ccnc2ccc(N3CCCOCC3)cc12 [Example 91, (R)—N-(2-(4-Cyanothiazolidin-3-yl)-2-oxoethyl)-6-(1,4-oxazepan-4-yl)-quinoline-4-carboxamide]
12 | 330 | 0.00012 | 1400000 | Cn1cc(-c2ccc3nccc(C(=O)NCC(=O)N4CSC[C@H]4C#N)c3c2)cn1 [Example 129, (R)—N-(2-(4-Cyanothiazolidin-3-yl)-2-oxoethyl)-6-(1-methyl-1H-pyrazol-4-yl)quinoline-4-carboxamide]
13 | 760 | 0.00011 | 2800000 | C[C@@H]1CN(c2ccc3nccc(C(=O)NCC(=O)N4CSC[C@H]4C#N)c3c2)[C@H](C)CO1 [Example 87, N-(2-((R)-4-Cyanothiazolidin-3-yl)-2-oxoethyl)-6-((2R,5R)-2,5-dimethyl-morpholino)quinoline-4-carboxamide]
14 |  | 0.0099 | 1200000 | Cc1cc(C(=O)NCC(=O)N2CSC[C@H]2C#N)c2cc(N3CCOCC3)ccc2n1 [Example 109, (R)—N-(2-(4-Cyanothiazolidin-3-yl)-2-oxoethyl)-2-methyl-6-morpholino-quinoline-4-carboxamide]
15 | 540 | 0.000085 | 5300000 | N#C[C@@H]1CSCN1C(=O)CNC(=O)c1ccnc2ccc(N3CC4(CCO4)C3)cc12 [Example 153, (R)—N-(2-(4-Cyanothiazolidin-3-yl)-2-oxoethyl)-6-(1-oxa-6-azaspiro[3.3]heptan-6-yl)quinoline-4-carboxamide]
16 | 470 | 0.000047 | 940000 | CC1(C)CN(c2ccc3nccc(C(=O)NCC(=O)N4CSC[C@H]4C#N)c3c2)C1 [Example 22, (R)—N-(2-(4-Cyanothiazolidin-3-yl)-2-oxoethyl)-6-(3,3-dimethylazetidin-1-yl)quinoline-4-carboxamide]
17 | 690 | 0.000014 | 1000000 | CCOC1(C)CN(c2ccc3nccc(C(=O)NCC(=O)N4CSC[C@H]4C#N)c3c2)C1 [Example 152, (R)—N-(2-(4-Cyanothiazolidin-3-yl)-2-oxoethyl)-6-(3-ethoxy-3-methyl-azetidin-1-yl)quinoline-4-carboxamide]
18 | 1100 | 0.00016 | 1900000 | CC1(C)COCCN1c1ccc2nccc(C(=O)NCC(=O)N3CSC[C@H]3C#N)c2c1 [Example 107, (R)—N-(2-(4-Cyanothiazolidin-3-yl)-2-oxoethyl)-6-(3,3-dimethyl-morpholino)quinoline-4-carboxamide]
19 | 890 | 0.00010 | 880000 | C[C@H]1CN(c2ccc3nccc(C(=O)NCC(=O)N4CSC[C@H]4C#N)c3c2)C[C@H](C)O1 [Example 78, N-(2-((R)-4-Cyanothiazolidin-3-yl)-2-oxoethyl)-6-((2S,6S)-2,6-dimethyl-morpholino)quinoline-4-carboxamide]
20 | 1000 | 0.000050 | 1400000 | C[C@@H]1COCCN1c1ccc2nccc(C(=O)NCC(=O)N3CSC[C@H]3C#N)c2c1 [Example 108, N-(2-((R)-4-Cyanothiazolidin-3-yl)-2-oxoethyl)-6-((R)-3-methyl-morpholino)quinoline-4-carboxamide]
